System: Key Broadleaf Weed and Crop Species
Experiment: Post-Emergent Test II (Table 5)
Format: in vivo
Details: Abutilon theophrasti, post-emergence, 336 h, ABUTH: velvetleaf (Abutilon theophrasti), application rate 70 (kg ai/ha; footnote: g ai/ha), read-out: Visual Growth Reduction (%) 14 Days After Application ABUTH
Method in brief: (§1)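 Visual injury ratings (0 = no injury, 100 = complete kill) taken 14 days after treatment, relative to untreated controls. Compounds, in an acetone/DMSO aqueous carrier with crop oil and surfactant, were applied by track sprayer at 187 L/ha, in a twofold dilution series from the top rate, to plants at the first to second true-leaf stage.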

| Compound | pest or weed control at 70 g/ha [%] |
| --- | --- |
| COC(=O)c1nc(-c2ccc(Cl)nc2F)c(F)c(N)c1Cl [Compound 45] | 85 to 94 |

Same assay, conditions: Abutilon theophrasti, post-emergence, 336 h, ABUTH: velvetleaf (Abutilon theophrasti), application rate 140 (kg ai/ha; footnote: g ai/ha), read-out: Visual Growth Reduction (%) 14 Days After Application ABUTH

| Compound | pest or weed control at 140 g/ha [%] |
| --- | --- |
| COC(=O)c1nc(-c2ccc(Cl)nc2F)c(F)c(N)c1Cl [Compound 45] | 95 to 100 |

Same assay, conditions: Amaranthus retroflexus, post-emergence, 336 h, AMARE: redroot pigweed (Amaranthus retroflexus), application rate 70 (kg ai/ha; footnote: g ai/ha), read-out: Visual Growth Reduction (%) 14 Days After Application AMARE

| Compound | pest or weed control at 70 g/ha [%] |
| --- | --- |
| COC(=O)c1nc(-c2ccc(Cl)nc2F)c(F)c(N)c1Cl [Compound 45] | 95 to 100 |

Same assay, conditions: Amaranthus retroflexus, post-emergence, 336 h, AMARE: redroot pigweed (Amaranthus retroflexus), application rate 140 (kg ai/ha; footnote: g ai/ha), read-out: Visual Growth Reduction (%) 14 Days After Application AMARE

| Compound | pest or weed control at 140 g/ha [%] |
| --- | --- |
| COC(=O)c1nc(-c2ccc(Cl)nc2F)c(F)c(N)c1Cl [Compound 45] | 95 to 100 |

Same assay, conditions: Brassica napus, post-emergence, 336 h, BRSSS: oilseed rape, canola (Brassica napus), application rate 70 (kg ai/ha; footnote: g ai/ha), read-out: Visual Growth Reduction (%) 14 Days After Application BRSSS

| Compound | pest or weed control at 70 g/ha [%] |
| --- | --- |
| COC(=O)c1nc(-c2ccc(Cl)nc2F)c(F)c(N)c1Cl [Compound 45] | 0 to 29 |

Same assay, conditions: Brassica napus, post-emergence, 336 h, BRSSS: oilseed rape, canola (Brassica napus), application rate 140 (kg ai/ha; footnote: g ai/ha), read-out: Visual Growth Reduction (%) 14 Days After Application BRSSS

| Compound | pest or weed control at 140 g/ha [%] |
| --- | --- |
| COC(=O)c1nc(-c2ccc(Cl)nc2F)c(F)c(N)c1Cl [Compound 45] | 30 to 44 |

Same assay, conditions: Chenopodium album, post-emergence, 336 h, CHEAL: lambsquarters (Chenopodium album), application rate 70 (kg ai/ha; footnote: g ai/ha), read-out: Visual Growth Reduction (%) 14 Days After Application CHEAL

| Compound | pest or weed control at 70 g/ha [%] |
| --- | --- |
| COC(=O)c1nc(-c2ccc(Cl)nc2F)c(F)c(N)c1Cl [Compound 45] | 95 to 100 |

Same assay, conditions: Chenopodium album, post-emergence, 336 h, CHEAL: lambsquarters (Chenopodium album), application rate 140 (kg ai/ha; footnote: g ai/ha), read-out: Visual Growth Reduction (%) 14 Days After Application CHEAL

| Compound | pest or weed control at 140 g/ha [%] |
| --- | --- |
| COC(=O)c1nc(-c2ccc(Cl)nc2F)c(F)c(N)c1Cl [Compound 45] | 95 to 100 |

Same assay, conditions: Euphorbia heterophylla, post-emergence, 336 h, EPHHL: wild poinsettia (Euphorbia heterophylla), application rate 70 (kg ai/ha; footnote: g ai/ha), read-out: Visual Growth Reduction (%) 14 Days After Application EPHHL

| Compound | pest or weed control at 70 g/ha [%] |
| --- | --- |
| COC(=O)c1nc(-c2ccc(Cl)nc2F)c(F)c(N)c1Cl [Compound 45] | 30 to 44 |

Same assay, conditions: Euphorbia heterophylla, post-emergence, 336 h, EPHHL: wild poinsettia (Euphorbia heterophylla), application rate 140 (kg ai/ha; footnote: g ai/ha), read-out: Visual Growth Reduction (%) 14 Days After Application EPHHL

| Compound | pest or weed control at 140 g/ha [%] |
| --- | --- |
| COC(=O)c1nc(-c2ccc(Cl)nc2F)c(F)c(N)c1Cl [Compound 45] | 45 to 59 |

Same assay, conditions: Helianthus annuus, post-emergence, 336 h, HELAN: sunflower (Helianthus annuus), application rate 70 (kg ai/ha; footnote: g ai/ha), read-out: Visual Growth Reduction (%) 14 Days After Application HELAN

| Compound | pest or weed control at 70 g/ha [%] |
| --- | --- |
| COC(=O)c1nc(-c2ccc(Cl)nc2F)c(F)c(N)c1Cl [Compound 45] | 95 to 100 |

Same assay, conditions: Helianthus annuus, post-emergence, 336 h, HELAN: sunflower (Helianthus annuus), application rate 140 (kg ai/ha; footnote: g ai/ha), read-out: Visual Growth Reduction (%) 14 Days After Application HELAN

| Compound | pest or weed control at 140 g/ha [%] |
| --- | --- |
| COC(=O)c1nc(-c2ccc(Cl)nc2F)c(F)c(N)c1Cl [Compound 45] | 95 to 100 |

Same assay, conditions: Viola tricolor, post-emergence, 336 h, VIOTR: wild pansy (Viola tricolor), application rate 70 (kg ai/ha; footnote: g ai/ha), read-out: Visual Growth Reduction (%) 14 Days After Application VIOTR

| Compound | pest or weed control at 70 g/ha [%] |
| --- | --- |
| COC(=O)c1nc(-c2ccc(Cl)nc2F)c(F)c(N)c1Cl [Compound 45] | 75 to 84 |

Same assay, conditions: Viola tricolor, post-emergence, 336 h, VIOTR: wild pansy (Viola tricolor), application rate 140 (kg ai/ha; footnote: g ai/ha), read-out: Visual Growth Reduction (%) 14 Days After Application VIOTR

| Compound | pest or weed control at 140 g/ha [%] |
| --- | --- |
| COC(=O)c1nc(-c2ccc(Cl)nc2F)c(F)c(N)c1Cl [Compound 45] | 95 to 100 |

System: Key Grass and Sedge Weeds as well as Grass Crops
Experiment: Post-Emergent Test II (Table 6)
Format: in vivo
Details: post-emergence, 336 h, CYPSS, 70 g ai/ha, 14 days after application, read-out: Visual Growth Reduction (%) 14 Days After Application CYPSS
Method in brief: as §1

| Compound | pest or weed control at 70 g/ha [%] |
| --- | --- |
| COC(=O)c1nc(-c2ccc(Cl)nc2F)c(F)c(N)c1Cl [Compound 45] | 95 to 100 |

Same assay, conditions: post-emergence, 336 h, CYPSS, 140 g ai/ha, 14 days after application, read-out: Visual Growth Reduction (%) 14 Days After Application CYPSS

| Compound | pest or weed control at 140 g/ha [%] |
| --- | --- |
| COC(=O)c1nc(-c2ccc(Cl)nc2F)c(F)c(N)c1Cl [Compound 45] | 95 to 100 |

Same assay, conditions: post-emergence, 336 h, DIGSA: crabgrass (Digitaria sanguinalis), 70 g ai/ha, 14 days after application, read-out: Visual Growth Reduction (%) 14 Days After Application DIGSA

| Compound | pest or weed control at 70 g/ha [%] |
| --- | --- |
| COC(=O)c1nc(-c2ccc(Cl)nc2F)c(F)c(N)c1Cl [Compound 45] | 60 to 74 |

Same assay, conditions: post-emergence, 336 h, DIGSA: crabgrass (Digitaria sanguinalis), 140 g ai/ha, 14 days after application, read-out: Visual Growth Reduction (%) 14 Days After Application DIGSA

| Compound | pest or weed control at 140 g/ha [%] |
| --- | --- |
| COC(=O)c1nc(-c2ccc(Cl)nc2F)c(F)c(N)c1Cl [Compound 45] | 75 to 84 |

Same assay, conditions: post-emergence, 336 h, ECHSS, 70 g ai/ha, 14 days after application, read-out: Visual Growth Reduction (%) 14 Days After Application ECHSS

| Compound | pest or weed control at 70 g/ha [%] |
| --- | --- |
| COC(=O)c1nc(-c2ccc(Cl)nc2F)c(F)c(N)c1Cl [Compound 45] | 75 to 84 |

Same assay, conditions: post-emergence, 336 h, ECHSS, 140 g ai/ha, 14 days after application, read-out: Visual Growth Reduction (%) 14 Days After Application ECHSS

| Compound | pest or weed control at 140 g/ha [%] |
| --- | --- |
| COC(=O)c1nc(-c2ccc(Cl)nc2F)c(F)c(N)c1Cl [Compound 45] | 85 to 94 |

Same assay, conditions: post-emergence, 336 h, ORYSS (crop), 70 g ai/ha, 14 days after application, read-out: Visual Growth Reduction (%) 14 Days After Application ORYSS

| Compound | pest or weed control at 70 g/ha [%] |
| --- | --- |
| COC(=O)c1nc(-c2ccc(Cl)nc2F)c(F)c(N)c1Cl [Compound 45] | 0 to 29 |

Same assay, conditions: post-emergence, 336 h, ORYSS (crop), 140 g ai/ha, 14 days after application, read-out: Visual Growth Reduction (%) 14 Days After Application ORYSS

| Compound | pest or weed control at 140 g/ha [%] |
| --- | --- |
| COC(=O)c1nc(-c2ccc(Cl)nc2F)c(F)c(N)c1Cl [Compound 45] | 0 to 29 |

Same assay, conditions: post-emergence, 336 h, SETFA: giant foxtail (Setaria faberi), 70 g ai/ha, 14 days after application, read-out: Visual Growth Reduction (%) 14 Days After Application SETFA

| Compound | pest or weed control at 70 g/ha [%] |
| --- | --- |
| COC(=O)c1nc(-c2ccc(Cl)nc2F)c(F)c(N)c1Cl [Compound 45] | 45 to 59 |

Same assay, conditions: post-emergence, 336 h, SETFA: giant foxtail (Setaria faberi), 140 g ai/ha, 14 days after application, read-out: Visual Growth Reduction (%) 14 Days After Application SETFA

| Compound | pest or weed control at 140 g/ha [%] |
| --- | --- |
| COC(=O)c1nc(-c2ccc(Cl)nc2F)c(F)c(N)c1Cl [Compound 45] | 45 to 59 |

Same assay, conditions: post-emergence, 336 h, SORVU: grain sorghum (Sorghum vulgare), 70 g ai/ha, 14 days after application, read-out: Visual Growth Reduction (%) 14 Days After Application SORVU

| Compound | pest or weed control at 70 g/ha [%] |
| --- | --- |
| COC(=O)c1nc(-c2ccc(Cl)nc2F)c(F)c(N)c1Cl [Compound 45] | 30 to 44 |

Same assay, conditions: post-emergence, 336 h, SORVU: grain sorghum (Sorghum vulgare), 140 g ai/ha, 14 days after application, read-out: Visual Growth Reduction (%) 14 Days After Application SORVU

| Compound | pest or weed control at 140 g/ha [%] |
| --- | --- |
| COC(=O)c1nc(-c2ccc(Cl)nc2F)c(F)c(N)c1Cl [Compound 45] | 45 to 59 |

Same assay, conditions: post-emergence, 336 h, TRZSS (crop), 70 g ai/ha, 14 days after application, read-out: Visual Growth Reduction (%) 14 Days After Application TRZSS

| Compound | pest or weed control at 70 g/ha [%] |
| --- | --- |
| COC(=O)c1nc(-c2ccc(Cl)nc2F)c(F)c(N)c1Cl [Compound 45] | 0 to 29 |

Same assay, conditions: post-emergence, 336 h, TRZSS (crop), 140 g ai/ha, 14 days after application, read-out: Visual Growth Reduction (%) 14 Days After Application TRZSS

| Compound | pest or weed control at 140 g/ha [%] |
| --- | --- |
| COC(=O)c1nc(-c2ccc(Cl)nc2F)c(F)c(N)c1Cl [Compound 45] | 0 to 29 |

Same assay, conditions: post-emergence, 336 h, ZEAMX: maize, corn (Zea mays), 70 g ai/ha, 14 days after application, read-out: Visual Growth Reduction (%) 14 Days After Application ZEAMX

| Compound | pest or weed control at 70 g/ha [%] |
| --- | --- |
| COC(=O)c1nc(-c2ccc(Cl)nc2F)c(F)c(N)c1Cl [Compound 45] | 0 to 29 |

Same assay, conditions: post-emergence, 336 h, ZEAMX: maize, corn (Zea mays), 140 g ai/ha, 14 days after application, read-out: Visual Growth Reduction (%) 14 Days After Application ZEAMX

| Compound | pest or weed control at 140 g/ha [%] |
| --- | --- |
| COC(=O)c1nc(-c2ccc(Cl)nc2F)c(F)c(N)c1Cl [Compound 45] | 0 to 29 |

System: not given
Experiment: not given
Details: not given

| melting point [°C] | Compound |
| --- | --- |
| 190 to 191 | COC(=O)c1nc(-c2ccc(Cl)nc2F)c(F)c(N)c1Cl [Compound 45] |
